Measured values taken from patent US20240139188A1, “Arylamide Compounds For Treatment And Prevention Of Fungal Infections” (priority 2022, published 2024).
≈ marks a conversion by molar mass, not a printed value. Like-named read-outs stand apart in the source and are kept apart here.

Columns and labels:
[1] = test system: A. fumigatus clinical isolates; assay: Growth inhibition of clinical isolates by CAS, VOR, BRI and combinations
A. fumigatus = assay: Fungal burden, chemotherapeutic murine model of IPA; type: in vivo, BALB/c mice; settings: BRI 50 mg/kg, 3 days post-infection, vs non-treated mice
Protocol: Fungal burden: Inbred female mice (BALB/c strain; body weight, 20-22 g) were housed in vented cages containing five animals. Mice were immunosuppressed with cyclophosphamide (150 mg per kg of body weight), which was administered intraperitoneally on days −4, −1 and 2 prior to and post infection (infection day is “day 0”). Hydrocortisonacetate (200 mg/kg body weight) was injected subcutaneously on day −3. Mice (5 mice per group) were anesthetized by halothane inhalation and infected by intranasal instillation of 20 μL of 1.0×10^6 conidia of A. fumigatus Δku80 pyrG^+ (wild-type) (the viability of the administered inoculum was determined by incubating a serial dilution of the conidia on MM medium, at 37° C.). As a negative control, a group of 5 mice received PBS only. […]
DNA quantity and quality were assessed using a NanoDrop 2000 spectrophotometer (Thermo Scientific). Quantitative real-time PCRs were performed using 400 ng of total DNA from each sample, and primers to amplify the 18S rRNA region of A. fumigatus and an intronic region of mouse GAPDH (glyceraldehyde-3-phosphate dehydrogenase). Six-point standard curves were calculated using serial dilutions of gDNA from A. fumigatus strain and the uninfected mouse lung. Fungal and mouse DNA quantities were obtained from the threshold cycle (Ct) values from an appropriate standard curve.

[2] = test system: A. fumigatus cell membrane potential; assay: Membrane potential determination, DiBAC4(3); type: cell-based, Aspergillus fumigatus; settings: BRI 1 μM, 30 minutes
Protocol: Membrane potential determination: […] Biotechnol., 2021, 14, 262-276) with modifications. […] After, the germlings were washed with sterile PBS (140 mM NaCl, 2 mM KCl, 10 mM NaHPO4, 1.8 mM KH2PO4, pH 7.4). The fluorescence was analyzed with excitation wavelength of 450-490 nm, and emission wavelength of 525-550 nm on the Observer Z1 fluorescence microscope (Carl Zeiss) using the 100× with Differential interference contrast (DIC) images. Fluorescent images were captured with an AxioCam camera (Carl Zeiss, Inc.) and processed using the Axio Vision software (version 4.8).

A. fumigatus biofilms = assay: Biofilm assay (XTT); settings: Aspergillus fumigatus, read-out: inhibition of biofilm formation
Protocol: Biofilm assay: To test the susceptibility of pre-formed A. fumigatus biofilms to
VOR, CAS and to the combination of CAS+BRI and VOR+BRI, a suspension containing 10^6 conidia per mL of the wild-type strain (Δku80 pyrG^+) was prepared in liquid MM and 100 μL of it was inoculated in each well of a 96-well plate. After 24 hours of incubation at 37° C., 50 μL of fresh MM containing CAS, VOR or the combination of VOR and CAS with BRI was added to the biofilm to reach the final concentration as indicated and incubated for a further 12 hours at 37° C. Wells containing untreated conidia were used as a positive control. After, the metabolic activity of the cells was evaluated by adding 50 μL of an aqueous XTT solution (1 mg/mL of XTT and 125 μM of menadione) to each well. The plate was incubated for additional 1 hour at 37° C., centrifuged (2000 rpm, 5 minutes) and 100 μL of the supernatant was transferred to a flat-bottomed 96-well plate. The absorbance was measured at 450 nm on a plate reader (Synergy HTX Multi-Mode Reader- BioTek Instruments). The XTT assay's were performed in six replicates.

C. neoformans [3] = assay: MIC for yeasts, CLSI M27-A3; type: cell-based, Cryptococcus neoformans; settings: read-out: MIC BRI
C. albicans = assay: MIC for yeasts, CLSI M27-A3; type: cell-based, Candida albicans
C. neoformans [4] = assay: BRI+CAS against yeasts, colony forming units
Protocol: Combination of Brilacidin and caspofungin against yeasts: For measuring the effect of the combination BRI+CAS against yeast fungal pathogens, two methods were used: (i) metabolic activity by XTT-assay and (ii) colony forming units (CFUs). For the first method, C. neoformans, C. albicans, and C. auris 10^4 cells were inoculated in RPMI-1640 supplemented with CAS 0 to 32 μg/ml (for C. neoformans) and 0 to 1 μg/ml (for Candida spp.) or the same concentrations of CAS combined with BRI 0.625 μM (for C. neoformans), BRI 20 μM (for C. albicans), and BRI 10 μM (for C. auris). […] XTT-assays were also used for C. albicans caspofungin resistant strains but with CAS 0.5 μg/ml combined with BRI 5, 10 or 20 μM. The same experimental design was used for the CFUs determination, except that after 48 hours the cells present in the wells were plated on YPD (yeast extract 10g, peptone 20g, dextrose 20g, agar 20 g, water 1000 mL) and the plates were incubated at 30° C. for 24-48 hours for determining the survival percentage.
CrzA:GFP = CrzA:GFP translocation to the nucleus; settings: BRI 5 μM, 30 minutes
Protocol: Conidia were germinated in YG medium and grown for 13 hours and then exposed or not to BRI, CAS, and BRI+CAS for 30 minutes.

chitin synthase genes = assay: Chitin synthase mRNA accumulation (RT-qPCR); settings: wild-type strain, 1 hour exposure; not in the mutant strains
Protocol: RNA-sequencing. cDNA synthesis and RTqPCR: All experiments were carried out in biological triplicates and conidia (10^7) were inoculated in liquid MM and A. fumigatus strains were grown for 16 hours at 37 ° C. and treated or not with different concentrations of BRI, CAS, or BRI+CAS for 1 hour. For total RNA isolation, mycelia were ground in liquid nitrogen and total RNA was extracted using TRIzol (Invitrogen), treated with RQ1 RNase-free DNase I (Promega), and purified using the RNAeasy kit (Qiagen) according to the manufacturer's instructions. RNA was quantified using a NanoDrop and Qubit fluorometer, and analyzed using an Agilent 2100 Bioanalyzer system to assess the integrity of the RNA.
For RT-qPCR, the RNA was reverse transcribed to cDNA using the ImProm-II reverse transcription system (Promega) according to manufacturer's instructions, and the synthesized cDNA was used for real-time analysis using the SYBR green PCR master mix kit (Applied Biosystems) in the ABI 7500 Fast real-time PCR system (Applied Biosystems, Foster City, CA, USA).

C. auris = assay: MIC for yeasts, CLSI M27-A3; type: cell-based, Candida auris; settings: read-out: MIC BRI
[5] = test system: A. fumigatus null mutants; assay: Phosphatase and kinase null mutant screening; type: cell-based, Aspergillus fumigatus; settings: for sensitivity of null mutant: BRI 20 μM; as to sensitivity, BRI (20 μM): key: +: sensitivity similar to wild-type; −: more sensitive than the wild-type
Protocol: Phosphatase and kinase null mutant screening: An A. fumigatus phosphatase deletion library encompassing 25 null mutants for phosphatase catalytic subunits (Winkelströter et al., G3 (Bethesda), 2015, 5, 1525-39) was screened for sensitivity to the combination of CAS+BRI. […] In each well a total of 200 μL of liquid MM plus conidia from the different mutants (1×10^4 conidia/mL) was incubated in the presence of BRI (20 μM).

N=C(N)NCCCCC(=O)Nc1cc(C(F)(F)F)cc(NC(=O)c2cc(C(=O)Nc3cc(C(F)(F)F)cc(NC(=O)CCCCNC(=N)N)c3OC3CCNC3)ncn2)c1OC1CCNC1 (stereo not drawn) [BRI, brilacidin]
activity of BRI alone ([1]; 25 clinical isolates susceptible to CAS and 3 CAS-resistant clinical strains): no activity
growth, BRI alone ([1]; CM7555 CAS^R, BRI 20 μM): +
growth, BRI alone ([1]; CM7555 CAS^R, BRI 40 μM): +
growth, BRI alone ([1]; DPL1033 CAS^R, BRI 20 μM): +
growth, BRI alone ([1]; DPL1033 CAS^R, BRI 40 μM): +
growth, BRI alone ([1]; MD24053 CAS^R, BRI 20 μM): +
growth, BRI alone ([1]; MD24053 CAS^R, BRI 40 μM): +
growth inhibition, BRI alone ([1]; WT (CEA17), BRI 20 μM): +
growth, BRI alone ([1]; WT, BRI 20 μM): +
growth, BRI alone ([1]; WT, BRI 40 μM): +
reduction of fungal burden in the lungs (A. fumigatus): approximately 50%
fluorescent germlings (membrane depolarization) [2]: 5%
inhibition at 20 µM (A. fumigatus biofilms): ~10%
inhibition at 40 µM (A. fumigatus biofilms): ~60%
MIC (C. neoformans [3]; Cryptococcus neoformans H99): 2.5 µM (≈ 2.34 µg/mL)
MIC (C. neoformans [3]; Cryptococcus neoformans, C. neoformans): 2.5 µM (≈ 2.34 µg/mL)
MIC (C. albicans; Candida albicans SC5314, read-out: MIC BRI): 80 µM (≈ 75 µg/mL)
MIC (C. albicans; Candida albicans, read-out: MIC BRI, Candida albicans DPL1006 CAS^R (FKS1 F641L)): 20 µM (≈ 18.7 µg/mL)
MIC (C. albicans; Candida albicans, read-out: MIC BRI, Candida albicans DPL1009 CAS^R (FKS1 S645Y)): 20 µM (≈ 18.7 µg/mL)
MIC (C. albicans; Candida albicans, read-out: MIC BRI, Candida albicans DPL1011 CAS^R (FKS1 S645F + R1361R/H)): 40 µM
MIC (C. albicans; Candida albicans, C. albicans CAS-resistant isolates, read-out: BRI MICs): 20 to 80 µM (≈ 18.7 to 75 µg/mL)
MIC (C. albicans; Candida albicans, C. albicans, read-out: MIC BRI): 80 µM (≈ 75 µg/mL)
type of activity (C. neoformans [4]; BRI alone, C. neoformans): fungicidal
Mechanism (C. neoformans [4]; Cryptococcus neoformans H99, plating after 48 hours): Fungicidal
germlings with CrzA:GFP in the nuclei (CrzA:GFP): 0%
chitin synthase gene expression (chitin synthase genes): induce some of these genes
MIC (C. auris; Candida auris 467/2015): 80 µM (≈ 75 µg/mL)
MIC (C. auris; Candida auris 468/2015): 80 µM (≈ 75 µg/mL)
MIC (C. auris; Candida auris 469/2015): 80 µM (≈ 75 µg/mL)
MIC (C. auris; Candida auris 470/2015): 80 µM (≈ 75 µg/mL)
MIC (C. auris; Candida auris 471/2015): 80 µM (≈ 75 µg/mL)
MIC (C. auris; Candidozyma auris, C. auris): 80 µM (≈ 75 µg/mL)
sensitivity, BRI (20 μM) ([5]; Afs35 (wild-type; A1159)): +
sensitivity, BRI (20 μM) ([5]; CEA17 (wild-type; A1160)): +
sensitivity, BRI (20 μM) ([5]; ΔcalA (Afu5g09360)): −
sensitivity of null mutant ([5]; ΔcalA): more sensitive
sensitivity, BRI (20 μM) ([5]; ΔcdcA (Afu3g12250)): +
sensitivity, BRI (20 μM) ([5]; ΔdspA (Afu1g13040)): +
sensitivity, BRI (20 μM) ([5]; ΔdspB (Afu1g03540)): +
sensitivity, BRI (20 μM) ([5]; ΔdspD (Afu2g02760)): +
sensitivity, BRI (20 μM) ([5]; ΔltpA (Afu2g01880)): +
sensitivity, BRI (20 μM) ([5]; ΔmpkA): −
sensitivity of null mutant ([5]; ΔmpkA): more sensitive
sensitivity, BRI (20 μM) ([5]; ΔmpkB): +
sensitivity, BRI (20 μM) ([5]; ΔmpkC): +
sensitivity, BRI (20 μM) ([5]; ΔnemA (Afu1g09460)): +
sensitivity, BRI (20 μM) ([5]; ΔpphA (Afu5g12010)): +
sensitivity, BRI (20 μM) ([5]; ΔppmA (Afu8g04580)): +
sensitivity, BRI (20 μM) ([5]; ΔppsA (Afu5g11690)): +
sensitivity, BRI (20 μM) ([5]; ΔpptA (Afu5g06700)): +
sensitivity, BRI (20 μM) ([5]; ΔppzA (Afu2g03950)): +
sensitivity, BRI (20 μM) ([5]; ΔpsrA (Afu1g04790)): +
sensitivity, BRI (20 μM) ([5]; ΔptcA (Afu1g15800)): +
sensitivity, BRI (20 μM) ([5]; ΔptcB (Afu1g09280)): +
sensitivity, BRI (20 μM) ([5]; ΔptcD (Afu5g13740)): +
sensitivity, BRI (20 μM) ([5]; ΔptcE (Afu2g03890)): +
sensitivity, BRI (20 μM) ([5]; ΔptcF (Afu1g06860)): +
sensitivity, BRI (20 μM) ([5]; ΔptcG (Afu5g13340)): +
sensitivity, BRI (20 μM) ([5]; ΔptcH (Afu4g00720)): +
sensitivity, BRI (20 μM) ([5]; ΔptpB (Afu3g10970)): +
sensitivity, BRI (20 μM) ([5]; ΔptyA (Afu6g06650)): +
sensitivity, BRI (20 μM) ([5]; ΔpypA (Afu4g04710)): +
sensitivity, BRI (20 μM) ([5]; ΔsakA): +
sensitivity, BRI (20 μM) ([5]; ΔsakA, ΔmpkC): +
sensitivity, BRI (20 μM) ([5]; ΔsitA (Afu6g11470)): +
sensitivity, BRI (20 μM) ([5]; ΔyphA (Afu4g07000)): +
